Laboratory results taken from patent publication US8415378B2, “Isoxazol-3(2H)-one analogs as therapeutic agents” (AstraZeneca AB, priority 2009, dated 2013).

Molecular target: T1, human Glu-plasminogen (Homo sapiens, UniProt P00747)
T1 construct: human Glu-plasminogen; purchased Chromogenix, Italy
Assay: Clot-lysis buffer assay
Format: biochemical
Experimental: The assay method used for evaluating biological activity of the compounds according to the invention was Clot-lysis buffer assay.
Tested substance were added to the reaction mixture in 10% DMSO. Reaction was started by the addition of thrombin.
Measured according to the Clot-lysis buffer assay described above.

T1 sequence (P00747 20-810 limits assumed): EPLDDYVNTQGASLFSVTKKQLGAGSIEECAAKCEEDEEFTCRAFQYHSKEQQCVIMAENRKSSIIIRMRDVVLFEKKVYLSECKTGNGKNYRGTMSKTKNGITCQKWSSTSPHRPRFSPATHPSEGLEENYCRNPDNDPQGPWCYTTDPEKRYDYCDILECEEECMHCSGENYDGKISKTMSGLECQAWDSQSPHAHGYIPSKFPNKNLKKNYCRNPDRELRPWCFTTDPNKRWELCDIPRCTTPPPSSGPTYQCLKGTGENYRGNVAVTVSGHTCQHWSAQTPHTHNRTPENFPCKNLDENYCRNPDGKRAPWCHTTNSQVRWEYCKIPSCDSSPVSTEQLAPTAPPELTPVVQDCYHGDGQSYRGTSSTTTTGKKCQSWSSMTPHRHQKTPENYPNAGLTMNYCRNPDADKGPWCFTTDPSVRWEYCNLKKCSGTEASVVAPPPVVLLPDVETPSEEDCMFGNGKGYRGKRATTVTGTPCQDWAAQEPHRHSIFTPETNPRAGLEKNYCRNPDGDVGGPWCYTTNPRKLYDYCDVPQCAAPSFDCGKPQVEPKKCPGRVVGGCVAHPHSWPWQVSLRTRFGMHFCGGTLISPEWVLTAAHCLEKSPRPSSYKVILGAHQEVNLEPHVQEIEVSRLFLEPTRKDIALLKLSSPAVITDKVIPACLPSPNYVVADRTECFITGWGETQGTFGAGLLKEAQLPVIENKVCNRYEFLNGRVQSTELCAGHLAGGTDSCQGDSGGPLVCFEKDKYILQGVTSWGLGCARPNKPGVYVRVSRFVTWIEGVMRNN

IC50 [µM]	SMILES
3.22	O=c1cc([C@H]2CCN[C@@H](c3cc(F)c(F)cc3F)C2)o[nH]1 [Example 63, 5-((2R,4S)-2-(2,4,5-Trifluorophenyl)piperidin-4-yl)isoxazol-3(2H)-one]
31.4	O=c1cc([C@H]2CCN[C@H](c3cc(F)c(F)cc3F)C2)o[nH]1 [Example 64, 5-((2S,4S)-2-(2,4,5-Trifluorophenyl)piperidin-4-yl)isoxazol-3(2H)-one]
1.1	O=c1cc([C@H]2CCN[C@@H](CCc3ccc(F)cc3)C2)o[nH]1 [Example 92, 5-((2S,4S)-2-(4-Fluorophenethyl)piperidin-4-yl)isoxazol-3(2H)-one]
69.8	O=c1cc([C@@H]2CCN[C@H](CCc3ccc(F)cc3)C2)o[nH]1 [Example 93, 5-((2R,4R)-2-(4-Fluorophenethyl)piperidin-4-yl)isoxazol-3(2H)-one]
1.5	O=c1cc([C@H]2CCN[C@@H](Cc3ccc(C(F)(F)F)cc3)C2)o[nH]1 [Example 104, 5-((2R,4S)-2-(4-(Trifluoromethyl)benzyl)piperidin-4-yl)isoxazol-3(2H)-one]
7.2	O=c1cc([C@H]2CCN[C@H](Cc3ccc(C(F)(F)F)cc3)C2)o[nH]1 [Example 105, 5-((2S,4S)-2-(4-(Trifluoromethyl)benzyl)piperidin-4-yl)isoxazol-3(2H)-one]
88.8	O=c1cc([C@@H]2CCN[C@@H](Cc3ccc(C(F)(F)F)cc3)C2)o[nH]1 [Example 106, 5-((2R,4R)-2-(4-(Trifluoromethyl)benzyl)piperidin-4-yl)isoxazol-3(2H)-one]
1.7	O=c1cc([C@H]2CCN[C@@H](Cc3cccc(C(F)(F)F)c3)C2)o[nH]1 [Example 107, 5-((2R,4S)-2-(3-(Trifluoromethyl)benzyl)piperidin-4-yl)isoxazol-3(2H)-one]
70.5	O=c1cc([C@@H]2CCN[C@H](Cc3cccc(C(F)(F)F)c3)C2)o[nH]1 [Example 108, 5-((2S,4R)-2-(3-(Trifluoromethyl)benzyl)piperidin-4-yl)isoxazol-3(2H)-one]
1.1	O=c1cc([C@H]2CCN[C@@H](Cc3ccc(OC(F)(F)F)cc3)C2)o[nH]1 [Example 113, 5-((2R,4S)-2-(4-(Trifluoromethoxy)benzyl)piperidin-4-yl)isoxazol-3(2H)-one]
0.8	O=c1cc([C@H]2CCN[C@@H](Cc3ccc(Cl)cc3)C2)o[nH]1 [Example 115, 5-((2R,4S)-2-(4-Chlorobenzyl)piperidin-4-yl)isoxazol-3(2H)-one]
0.8	CS(=O)(=O)c1ccc(C[C@H]2C[C@@H](c3cc(=O)[nH]o3)CCN2)cc1 [Example 117, 5-((2R,4S)-2-(4-(Methylsulfonyl)benzyl)piperidin-4-yl)isoxazol-3(2H)-one]
225	CS(=O)(=O)c1ccc(C[C@@H]2C[C@H](c3cc(=O)[nH]o3)CCN2)cc1 [Example 118, 5-((2S,4R)-2-(4-(Methylsulfonyl)benzyl)piperidin-4-yl)isoxazol-3(2H)-one]
0.89	O=c1cc([C@H]2CCN[C@@H](Cc3ccc(F)c(F)c3)C2)o[nH]1 [Example 120, 5-((2R,4S)-2-(3,4-Difluorobenzyl)piperidin-4-yl)isoxazol-3(2H)-one]
120	O=c1cc([C@@H]2CCN[C@H](Cc3ccc(F)c(F)c3)C2)o[nH]1 [Example 121, 5-((2S,4R)-2-(3,4-Difluorobenzyl)piperidin-4-yl)isoxazol-3(2H)-one]
4.4	O=c1cc([C@H]2CCN[C@H](Cc3ccc(F)c(F)c3)C2)o[nH]1 [Example 122, 5-((2S,4S)-2-(3,4-Difluorobenzyl)piperidin-4-yl)isoxazol-3(2H)-one]
147	O=c1cc([C@@H]2CCN[C@@H](Cc3ccc(F)c(F)c3)C2)o[nH]1 [Example 123, 5-((2R,4R)-2-(3,4-Difluorobenzyl)piperidin-4-yl)isoxazol-3(2H)-one]

Further lines, the compound ahead of its results:

SMILES	IC50 [µM]
O=c1cc([C@H]2CCN[C@H](c3ccc(Cl)cc3Cl)C2)o[nH]1 [Example 53, 5-((2S,4S)-2-(2,4-Dichlorophenyl)piperidin-4-yl)isoxazol-3(2H)-one]	72.9
O=c1cc([C@@H]2CCN[C@@H](c3ccc(Cl)cc3Cl)C2)o[nH]1 [Example 54, 5-((2R,4R)-2-(2,4-Dichlorophenyl)piperidin-4-yl)isoxazol-3(2H)-one]	372
O=c1cc([C@H]2CCN[C@@H](c3cc(Cl)cc(Cl)c3)C2)o[nH]1 [Example 55, 5-((2R,4S)-2-(3,5-Dichlorophenyl)piperidin-4-yl)isoxazol-3(2H)-one]	0.6
O=c1cc([C@@H]2CCN[C@H](c3cc(Cl)cc(Cl)c3)C2)o[nH]1 [Example 56, 5-((2S,4R)-2-(3,5-Dichlorophenyl)piperidin-4-yl)isoxazol-3(2H)-one]	43.8
O=c1cc([C@H]2CCN[C@@H](c3ccc(OC(F)(F)F)cc3F)C2)o[nH]1 [Example 58, 5-((2R,4S)-2-(2-Fluoro-4-(trifluoromethoxy)phenyl)piperidin-4-yl)isoxazol-3(2H)-one]	2.1
O=c1cc([C@H]2CCN[C@@H](c3cc(F)c(F)c(F)c3)C2)o[nH]1 [Example 60, 5-((2R,4S)-2-(3,4,5-Trifluorophenyl)piperidin-4-yl)isoxazol-3(2H)-one]	1.9
O=c1cc([C@@H]2CCN[C@H](c3cc(F)c(F)c(F)c3)C2)o[nH]1 [Example 61, 5-((2S,4R)-2-(3,4,5-Trifluorophenyl)piperidin-4-yl)isoxazol-3(2H)-one]	858
O=c1cc([C@H]2CCN[C@@H](c3cc(F)c(Cl)c(F)c3)C2)o[nH]1 [Example 65, 5-((2R,4S)-2-(4-Chloro-3,5-difluorophenyl)piperidin-4-yl)isoxazol-3(2H)-one]	2.2
Cc1cc([C@H]2C[C@@H](c3cc(=O)[nH]o3)CCN2)ccc1C(F)(F)F [Example 67, 5-((2R,4S)-2-(3-Methyl-4-(trifluoromethyl)phenyl)piperidin-4-yl)isoxazol-3(2H)-one]	1.3
Cc1cc([C@@H]2C[C@H](c3cc(=O)[nH]o3)CCN2)ccc1C(F)(F)F [Example 68, 5-((2S,4R)-2-(3-Methyl-4-(trifluoromethyl)phenyl)piperidin-4-yl)isoxazol-3(2H)-one]	81.1
O=c1cc([C@H]2CCN[C@@H](c3cc(F)c(C(F)(F)F)c(F)c3)C2)o[nH]1 [Example 70, 5-((2R,4S)-2-(3,5-Difluoro-4-(trifluoromethyl)phenyl)piperidin-4-yl)isoxazol-3(2H)-one]	2.5
Cc1cc(C(F)(F)F)ccc1[C@H]1C[C@@H](c2cc(=O)[nH]o2)CCN1 [Example 72, 5-((2R,4S)-2-(2-Methyl-4-(trifluoromethyl)phenyl)piperidin-4-yl)isoxazol-3(2H)-one]	0.6
O=c1cc([C@H]2CCN[C@@H](c3ccc(C(F)(F)F)cc3F)C2)o[nH]1 [Example 73, 5-((2R,4S)-2-(2-Fluoro-4-(trifluoromethyl)phenyl)piperidin-4-yl)isoxazol-3(2H)-one]	1.54
O=c1cc([C@H]2CCN[C@@H](c3ccc(C(F)(F)F)c(F)c3)C2)o[nH]1 [Example 75, 5-((2R,4S)-2-(3-Fluoro-4-(trifluoromethyl)phenyl)piperidin-4-yl)isoxazol-3(2H)-one]	3.1
O=c1cc([C@@H]2CCN[C@H](c3ccc(C(F)(F)F)c(F)c3)C2)o[nH]1 [Example 76, 5-((2S,4R)-2-(3-Fluoro-4-(trifluoromethyl)phenyl)piperidin-4-yl)isoxazol-3(2H)-one]	190
O=c1cc([C@H]2CCN[C@@H](c3ccccc3)C2)o[nH]1 [Example 77, 5-((2R,4S)-2-Phenylpiperidin-4-yl)isoxazol-3(2H)-one]	8
O=c1cc([C@H]2CCN[C@H](c3ccccc3)C2)o[nH]1 [Example 78]	64.2
O=c1cc([C@H]2CCN[C@@H](C3CCCCC3)C2)o[nH]1 [Example 79, 5-((2R,4S)-2-Cyclohexylpiperidin-4-yl)isoxazol-3(2H)-one]	3.3
O=c1cc([C@H]2CCN[C@H](C3CCCCC3)C2)o[nH]1 [Example 80, 5-((2S,4S)-2-Cyclohexylpiperidin-4-yl)isoxazol-3(2H)-one]	44
Cn1nnc([C@H]2C[C@@H](c3cc(=O)[nH]o3)CCN2)n1 [Example 81, 5-((2R,4S)-2-(2-Methyl-2H-tetrazol-5-yl)piperidin-4-yl)isoxazol-3(2H)-one]	1.6
Cn1nnnc1[C@H]1C[C@@H](c2cc(=O)[nH]o2)CCN1 [Example 83, 5-((2R,4S)-2-(1-Methyl-1H-tetrazol-5-yl)piperidin-4-yl)isoxazol-3(2H)-one]	42
O=c1cc([C@H]2CCN[C@@H](COC3CCCCC3)C2)o[nH]1 [Example 84, 5-((2R,4S)-2-(Cyclohexyloxymethyl)piperidin-4-yl)isoxazol-3(2H)-one]	1.7
O=c1cc([C@@H]2CCN[C@H](COC3CCCCC3)C2)o[nH]1 [Example 85, 5-((2S,4R)-2-(Cyclohexyloxymethyl)piperidin-4-yl)isoxazol-3(2H)-one]	173
O=c1cc([C@H]2CCN[C@@H](C(F)F)C2)o[nH]1 [Example 87, 5-((2R,4S)-2-(Difluoromethyl)piperidin-4-yl)isoxazol-3(2H)-one]	10.7
O=c1cc([C@H]2CCN[C@@H](CC3CCC(F)(F)CC3)C2)o[nH]1 [Example 89, 5-((2S,4S)-2-((4,4-Difluorocyclohexyl)methyl)piperidin-4-yl)isoxazol-3(2H)-one]	1.5
O=c1cc([C@@H]2CCN[C@H](CC3CCC(F)(F)CC3)C2)o[nH]1 [Example 90, 5-((2R,4R)-2-((4,4-Difluorocyclohexyl)methyl)piperidin-4-yl)isoxazol-3(2H)-one]	102
O=c1cc([C@H]2CCN[C@@H](Cc3ccccc3C(F)(F)F)C2)o[nH]1 [Example 110, 5-((2R,4S)-2-(2-(Trifluoromethyl)benzyl)piperidin-4-yl)isoxazol-3(2H)-one]	1.2
O=c1cc([C@@H]2CCN[C@H](Cc3ccccc3C(F)(F)F)C2)o[nH]1 [Example 111, 5-((2S,4R)-2-(2-(trifluoromethyl)benzyl)piperidin-4-yl)isoxazol-3(2H)-one]	31.3
